Test results taken from PubChem BioAssay AID588639 (Sanford-Burnham Center for Chemical Genomics, 2011).
Where “and” joins values, the source holds several entries; their conditions need not be identical. Identical values can stand only once. Calls of active or inactive are those of the source. No rule for the calls is given here.

Target: Alkaline phosphatase, tissue-nonspecific isozyme (Homo sapiens) (UniProt P05186)
Test: human TNAP enzyme inhibitors, SAR follow-up, selectivity assay for mouse IAP inhibitor project, biochemical, set 2 (AID 588639)
Conditions: purified human TNAP enzyme activity, counter-screen for mouse IAP

Chain of Alkaline phosphatase, tissue-nonspecific isozyme (Homo sapiens) (P05186 whole entry, looked up): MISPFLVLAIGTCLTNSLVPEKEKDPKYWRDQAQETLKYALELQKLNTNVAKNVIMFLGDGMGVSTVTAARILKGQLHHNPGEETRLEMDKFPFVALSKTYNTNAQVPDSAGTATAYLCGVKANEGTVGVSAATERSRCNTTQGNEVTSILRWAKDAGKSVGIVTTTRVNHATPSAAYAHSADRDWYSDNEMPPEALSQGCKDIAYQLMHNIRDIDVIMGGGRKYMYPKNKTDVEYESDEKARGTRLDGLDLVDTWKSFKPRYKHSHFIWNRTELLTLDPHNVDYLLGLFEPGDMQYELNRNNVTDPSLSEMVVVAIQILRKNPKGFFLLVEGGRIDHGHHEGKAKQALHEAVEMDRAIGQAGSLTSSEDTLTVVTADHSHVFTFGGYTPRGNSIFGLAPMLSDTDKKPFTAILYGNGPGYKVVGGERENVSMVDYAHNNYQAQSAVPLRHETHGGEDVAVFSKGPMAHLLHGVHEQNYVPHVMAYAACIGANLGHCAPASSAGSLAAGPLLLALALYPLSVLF

| Compound | IC50 |
| --- | --- |
| COc1ccc(CNC(=O)CCCNS(=O)(=O)c2ccc3[nH]c(=O)oc3c2)c(OC)c1 | > 100 µM (inactive) |
| COc1ccc(NC(=O)CCCNS(=O)(=O)c2ccc3[nH]c(=O)oc3c2)c(OC)c1 | > 100 µM (inactive) |
| CSc1cccc(NC(=O)C2CCCN(S(=O)(=O)c3ccc4c(c3)oc(=O)n4C)C2)c1 (centres undefined) | > 100 µM (inactive) |
| COc1cc(C(=O)N/N=C/c2c(F)cccc2Cl)cc(OC)c1OC | > 100 µM (inactive) |
| O=C(CCNS(=O)(=O)c1ccc2[nH]c(=O)oc2c1)NCCc1ccc2c(c1)OCO2 | > 100 µM (inactive) |
| O=C(N/N=C/c1ccccc1Cl)c1cc(O)c(O)c(O)c1 | > 100 µM (inactive) |
| O=C(CCS(=O)(=O)Nc1ccc2[nH]c(=O)oc2c1)NCc1cccc(F)c1 | > 100 µM (inactive) |
| CC(C)c1ccc(/C=N/NC(=O)c2cc(O)c(O)c(O)c2)cc1 | > 100 µM (inactive) |
| COc1ccc(CNS(=O)(=O)c2ccc3[nH]c(=O)oc3c2)cc1 | > 100 µM (inactive) |
| COc1ccc(CNC(=O)CCNS(=O)(=O)c2ccc3ccccc3c2)c(OC)c1 | > 100 µM (inactive) |
| N#Cc1ccc(NC(=O)CNS(=O)(=O)c2ccc3[nH]c(=O)oc3c2)cc1 | > 100 µM (inactive) and 81.4 µM |
| COc1cccc(NC(=O)CCNS(=O)(=O)c2ccc3c(c2)oc(=O)n3C)c1 | > 100 µM (inactive) |
| O=C(NCc1ccccc1)C1CCCN(S(=O)(=O)c2ccc3[nH]c(=O)oc3c2)C1 (centres undefined) | > 100 µM (inactive) |
| O=C(CCNS(=O)(=O)c1ccc2ccccc2c1)NCCc1ccc2c(c1)OCO2 | > 100 µM (inactive) |
| O=C(NN=Cc1ccccc1F)c1ccc(O)cc1 | > 100 µM (inactive) |
| CC(C)c1ccc(NC(=O)C2CCCN(S(=O)(=O)c3ccc4c(c3)oc(=O)n4C)C2)cc1 (centres undefined) | > 100 µM (inactive) |
| O=C(CCNS(=O)(=O)c1ccc2[nH]c(=O)oc2c1)NCc1cccc(F)c1 | > 100 µM (inactive) |
| O=C(CCNS(=O)(=O)c1ccc2[nH]c(=O)oc2c1)NCc1ccc(O)c(O)c1 | > 100 µM (inactive) |
| O=C(CCCNS(=O)(=O)c1ccc2[nH]c(=O)oc2c1)NCc1cccc(F)c1 | 51.4 µM and > 100 µM (inactive) |
| O=C(CCNS(=O)(=O)c1ccc2[nH]c(=O)oc2c1)NCc1ccc(Cl)cc1 | > 100 µM (inactive) |
| O=C(N/N=C/c1ccc(Cl)c(Cl)c1)c1cc(O)c(O)c(O)c1 | > 100 µM (inactive) |
| Cc1ccc(NC(=O)CCNS(=O)(=O)c2ccc3c(c2)oc(=O)n3C)c(C)c1 | > 100 µM (inactive) |

| Compound | IC50 |
| --- | --- |
| Cc1ccc(C)c(NC(=O)CCNS(=O)(=O)c2ccc3ccccc3c2)c1 | > 100 µM (inactive) |
| O=c1[nH]c2ccc(S(=O)(=O)NCc3ccc4c(c3)OCO4)cc2o1 | > 100 µM (inactive) |
| O=C(CCNS(=O)(=O)c1ccc2[nH]c(=O)oc2c1)NCc1cccc(Cl)c1 | > 100 µM (inactive) |
| COc1ccc(OC)c(NC(=O)C2CCCN(S(=O)(=O)c3ccc4c(c3)oc(=O)n4C)C2)c1 (centres undefined) | > 100 µM (inactive) |
| COc1ccc(NC(=O)CCNS(=O)(=O)c2ccc3c(c2)CCC3)cc1OC | > 100 µM (inactive) |
| O=C(CCNS(=O)(=O)c1ccc2[nH]c(=O)oc2c1)NCc1ccc(C(F)(F)F)cc1 | > 100 µM (inactive) |
| O=C(N/N=C/c1c(F)cccc1Cl)c1ccc(O)cc1O | > 100 µM (inactive) |
| Cc1ccc(NC(=O)CCNS(=O)(=O)c2ccc3[nH]c(=O)oc3c2)cc1C | > 100 µM (inactive) |
| O=C(N/N=C/c1c(Cl)cccc1Cl)c1cc(O)c(O)c(O)c1 | > 100 µM (inactive) |
| O=C(N/N=C/c1ccccc1C(F)(F)F)c1cc(O)c(O)c(O)c1 | > 100 µM (inactive) |
| COc1ccccc1CNC(=O)CCNS(=O)(=O)c1ccc2[nH]c(=O)oc2c1 | > 100 µM (inactive) |
| COc1cccc(CNC(=O)CNS(=O)(=O)c2ccc3[nH]c(=O)oc3c2)c1 | > 100 µM (inactive) and 73.8 µM |
| O=C(N/N=C/c1ccccc1F)c1ccc(O)cc1 | > 100 µM (inactive) |
| O=C(CCNS(=O)(=O)c1ccc2[nH]c(=O)oc2c1)NCc1ccc2c(c1)OCO2 | > 100 µM (inactive) |
| Cc1ccc(NC(=O)CCNS(=O)(=O)c2ccc3c(c2)oc(=O)n3C)cc1 | > 100 µM (inactive) |
| O=C(CCNS(=O)(=O)c1ccc2[nH]c(=O)oc2c1)NCc1ccccc1Cl | > 100 µM (inactive) |
| Cc1ccc(CNC(=O)C2CCCN(S(=O)(=O)c3ccc4[nH]c(=O)oc4c3)C2)cc1 (centres undefined) | > 100 µM (inactive) |
| O=C(CNS(=O)(=O)c1ccc2[nH]c(=O)oc2c1)NCCc1ccc2c(c1)OCO2 | > 100 µM (inactive) |
| O=C(CCNS(=O)(=O)c1ccc2[nH]c(=O)oc2c1)NCc1ccccc1F | > 100 µM (inactive) |
| Cc1ccc(C)c(NC(=O)C2CCCN(S(=O)(=O)c3ccc4c(c3)oc(=O)n4C)C2)c1 (centres undefined) | > 100 µM (inactive) |
| O=C(N/N=C/c1c(F)cccc1Cl)c1ccc(O)cc1 | > 100 µM (inactive) |
| O=C(CCCNS(=O)(=O)c1ccc2[nH]c(=O)oc2c1)NCCc1ccc(O)cc1 | 74.6 µM |

| Compound | IC50 |
| --- | --- |
| COc1ccccc1CNC(=O)CCCNS(=O)(=O)c1ccc2[nH]c(=O)oc2c1 | > 100 µM (inactive) |
| COc1ccc(CCNC(=O)CCCNS(=O)(=O)c2ccc3[nH]c(=O)oc3c2)cc1 | > 100 µM (inactive) |
| CC(C)(C)c1ccc(/C=N/NC(=O)c2cc(O)c(O)c(O)c2)cc1 | > 100 µM (inactive) |
| COc1ccc(/C=N/NC(=O)c2cc(O)c(O)c(O)c2)c(OC)c1 | > 100 µM (inactive) |
| N#Cc1cccc(NS(=O)(=O)c2ccc3[nH]c(=O)oc3c2)c1 | > 100 µM (inactive) |
| COc1ccc(NC(=O)CCNS(=O)(=O)c2ccc3[nH]c(=O)oc3c2)cc1OC | 74.4 µM and 65.5 µM |
| O=C(CCS(=O)(=O)Nc1ccc2[nH]c(=O)oc2c1)NCc1cccc(Cl)c1 | > 100 µM (inactive) |
| Cc1ccc(C)c(NC(=O)CNS(=O)(=O)c2ccc3[nH]c(=O)oc3c2)c1 | > 100 µM (inactive) and 34.8 µM |
| O=C(CCNS(=O)(=O)c1ccc2[nH]c(=O)oc2c1)NCc1ccc(F)cc1 | > 100 µM (inactive) |
| COc1ccc(/C=N\NC(=O)c2cc(O)c(O)c(O)c2)cc1CN1CCN(c2ccc(F)cc2)CC1 | > 100 µM (inactive) |
| O=C(N/N=C/c1cccc(Cl)c1Cl)c1cc(O)c(O)c(O)c1 | > 100 µM (inactive) |
| O=C(CCNS(=O)(=O)c1ccc2[nH]c(=O)oc2c1)NCc1cccc(C(F)(F)F)c1 | > 100 µM (inactive) |
| CCOc1cc(C(=O)N/N=C/c2c(F)cccc2Cl)cc(OCC)c1OCC | > 100 µM (inactive) |
| CN(C)c1ccc(CNC(=O)C2CCCN(S(=O)(=O)c3ccc4[nH]c(=O)oc4c3)C2)cc1 (centres undefined) | > 100 µM (inactive) |
| CCc1ccc(NC(=O)C2CCCN(S(=O)(=O)c3ccc4c(c3)oc(=O)n4C)C2)cc1 (centres undefined) | > 100 µM (inactive) |
| COc1cccc(/C=N/NC(=O)c2cc(O)c(O)c(O)c2)c1O | > 100 µM (inactive) |
| O=C(N/N=C/c1ccccc1F)c1ccc(O)cc1O | > 100 µM (inactive) |
| COc1ccc(CNC(=O)CCNS(=O)(=O)c2ccc3[nH]c(=O)oc3c2)cc1 | > 100 µM (inactive) |
| O=C(NCc1ccc2c(c1)OCO2)C1CCCN(S(=O)(=O)c2ccc3[nH]c(=O)oc3c2)C1 (centres undefined) | > 100 µM (inactive) |
| CCOc1ccc(CNC(=O)C2CCCN(S(=O)(=O)c3ccc4[nH]c(=O)oc4c3)C2)cc1OC (centres undefined) | > 100 µM (inactive) |
